Measurements from the supplement of paper PMC10307832.

Legend:
Assay in all cases: relative viability (nuclei count vs DMSO), 5 days (fraction); higher = more cells survive
[1] = compound: COc1cc2ncn(-c3cc(OCc4ccccc4C(F)(F)F)c(C(N)=O)s3)c2cc1OC + CC(C)C[C@H](NC(=O)[C@H](Cc1ccccc1)NC(=O)c1cnccn1)B(O)O [Bortezomib] (partner 0.002 µM)
How it was run: (§1)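 Lung cancer cell lines in 1536-well plates got either a single drug or a fixed anchor-drug dose together with five library-drug doses (not always all listed) in √10 steps, by pin tool, on the day after seeding. Nuclei were counted after 5 days, and relative viability is the treated-to-vehicle ratio of nuclei counts. Values are medians of duplicate plates.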

[2] = compound: COc1cc2ncn(-c3cc(OCc4ccccc4C(F)(F)F)c(C(N)=O)s3)c2cc1OC + CS(=O)(=O)N1CCN(Cc2cc3nc(-c4cccc5[nH]ncc45)nc(N4CCOCC4)c3s2)CC1 [Pictilisib] (partner 1 µM)
How it was run: as §1

[3] = compound: COc1cc2ncn(-c3cc(OCc4ccccc4C(F)(F)F)c(C(N)=O)s3)c2cc1OC + O=C(c1cc(Cc2n[nH]c(=O)c3ccccc23)ccc1F)N1CCN(C(=O)C2CC2)CC1 [Olaparib] (partner 8 µM)
How it was run: as §1

[4] = compound: COc1cc2ncn(-c3cc(OCc4ccccc4C(F)(F)F)c(C(N)=O)s3)c2cc1OC + CC(=O)Nc1cccc(-n2c(=O)n(C3CC3)c(=O)c3c(Nc4ccc(I)cc4F)n(C)c(=O)c(C)c32)c1 [Trametinib] (partner 0.02 µM)
How it was run: as §1

Cell Line	relative viability ([1]; first compound 0.05 µM)	relative viability ([1]; first compound 0.1581 µM)	relative viability ([1]; first compound 0.5 µM)	relative viability ([1]; first compound 1.581 µM)	relative viability ([1]; first compound 5 µM)	relative viability ([2]; first compound 0.05 µM)	relative viability ([2]; first compound 0.1581 µM)	relative viability ([2]; first compound 0.5 µM)	relative viability ([2]; first compound 1.581 µM)	relative viability ([2]; first compound 5 µM)	relative viability ([3]; first compound 0.05 µM)	relative viability ([3]; first compound 0.1581 µM)	relative viability ([3]; first compound 0.5 µM)	relative viability ([3]; first compound 1.581 µM)	relative viability ([3]; first compound 5 µM)	relative viability ([4]; first compound 0.05 µM)	relative viability ([4]; first compound 0.1581 µM)	relative viability ([4]; first compound 0.5 µM)	relative viability ([4]; first compound 1.581 µM)	relative viability ([4]; first compound 5 µM)
ChaGo-K-1	0.98	0.727	1.03	0.427	0.272	0.676	0.419	0.594	0.322	0.248	0.398	0.389	0.312	0.208	0.12	1.01	0.907	0.661	0.267	0.194
EBC-1	0.454	0.439	0.208	0.139	0.159	0.478	0.383	0.145	0.134	0.141	0.622	0.758	0.217	0.154	0.128					
EKVX	1.1	0.773	0.991	0.195	0.487	0.42	0.516	0.427	0.262	0.291	0.888	0.934	0.631	0.206	0.222	0.36	0.307	0.365	0.173	0.201
EMC-BAC-2	1.19	1.08	0.925	0.416	0.278	0.581	0.46	0.526	0.352	0.139	0.467	0.48	0.359	0.259	0.216	0.977	0.689	0.872	0.629	0.298
EPLC-272H	1.05	0.82	0.567	0.0851	0.135	0.354	0.202	0.287	0.173	0.135	0.177	0.221	0.0762	0.0805	0.146	0.285	0.234	0.216	0.154	0.163
H3255	0.793	0.746	0.708	0.363	0.242	0.458	0.467	0.247	0.21	0.187	0.532	0.534	0.541	0.415	0.332	0.609	0.545	0.568	0.411	0.301
HARA	1.09	0.986	1.02	0.215	0.0851	0.443	0.38	0.274	0.0824	0.0556	0.317		0.261	0.131	0.105	0.423		0.609	0.149	0.0917
HCC-15	0.99	0.89	0.785	0.142	0.114	0.69	0.707	0.549	0.163	0.125	0.566	0.446	0.232	0.131	0.14	0.227	0.378	0.259	0.112	0.0946
